Assay results reported in patent US8980886B2, “Anthranilic acid derivatives” (Bayer Cropscience AG, priority 2010, dated 2015).
Like-named read-outs stand apart in the source and are kept apart here.

Tests used:
[1] = logP by HPLC on reversed-phase columns (C 18), EEC Directive 79/831 Annex V.A8; assay type: physicochemical; settings: reversed-phase C 18, acidic range pH 2.7; for chromatographic logP: reversed-phase HPLC column (C 18), pH 2.7, HPLC
Description: The logP values reported in the table above and in the Preparation Examples were determined in accordance with EEC Directive 79/831 Annex V.A8 by HPLC (High Performance Liquid Chromatography) on reversed-phase columns (C 18), with the following methods: The LC-MS determination in the acidic range is carried out at pH 2.7 using the mobile phases 0.1% aqueous formic acid and acetonitrile (contains 0.1% formic acid), linear gradient from 10% acetonitrile to 95% acetonitrile Calibration was carried out using unbranched alkan-2-ones (having from 3 to 16 carbon atoms) with known logP values (the logP values were determined by the retention times using linear interpolation between two successive alkanones).

Phaedon cochleariae = experiment: Phaedon test (PHAECO spray treatment); assay type: in vivo; settings: 168 h, sprayed Chinese cabbage discs, after 7 days, read-out: activity in % (beetle larvae killed)
Description: (§1) Solvents: 78.0 parts by weight of acetone 1.5 parts by weight of dimethylformamide Emulsifier: 0.5 part by weight of alkylaryl polyglycol ether To produce a suitable preparation of active compound, 1 part by weight of active compound is mixed with the stated amount of solvents and emulsifier, and the concentrate is diluted with emulsifier-containing water to the desired concentration. Discs of Chinese cabbage (Brassica pekinensis) are sprayed with an active compound preparation of the desired concentration and, after drying, populated with larvae of the mustard beetle (Phaedon cochleariae). After 7 days, the activity in % is determined. 100% means that all beetle larvae have been killed; 0% means that none of the beetle larvae have been killed.

Spodoptera frugiperda = Spodoptera frugiperda test (SPODFR spray treatment); assay type: in vivo; settings: foliar, 168 h, sprayed maize leaf discs, after 7 days, read-out: effect in % (caterpillars killed)
Description: as §1, with “maize leaves (Zea mays)” for “Chinese cabbage (Brassica pekinensis)”, “caterpillars” for “larvae”, “armyworm (Spodoptera frugiperda).” for “mustard beetle (Phaedon cochleariae).”, “effect” for “activity”, “determined” for “determined.”, “caterpillars” for “beetle larvae”

[2] = table of compounds, read-out: log P

Cc1cc(Cl)cc2c(=O)oc(-c3cnc(Cn4nnc(C(F)(F)F)n4)nc3-c3ccccc3Cl)nc12 [6-chloro-2-[4-(2-chlorophenyl)-2-{[5-(trifluoromethyl)-2H-tetrazol-2-yl]methyl}pyrimidin-5-yl]-8-methyl-4H-3,1-benzoxazin-4-one]
chromatographic logP ([1]; Preparation Examples): 5.16

CNC(=O)c1cc(Br)cc(C)c1NC(=O)c1nc(Cn2nnc(C(F)(F)F)n2)sc1-c1ccccc1Cl [Compound 1]
chromatographic logP [1, 2]: 3.98

Cc1cc(Cl)cc(C(=O)NC(C)C)c1NC(=O)c1nc(Cn2nnc(C(F)(F)F)n2)sc1-c1ccccc1Cl [Compound 2]
chromatographic logP [1, 2]: 4.34

CNC(=O)c1cc(Cl)cc(C)c1NC(=O)c1cn(Cc2ccc(C(F)(F)F)nc2)nc1-c1ccccc1Cl [Compound 4]
chromatographic logP [1, 2]: 3.12

Cc1cc(Br)cc(C(=O)NC(C)C)c1NC(=O)c1nc(Cn2nnc(C(F)(F)F)n2)sc1-c1ccccc1Cl [Compound 5]
chromatographic logP [1, 2]: 4.48

CNC(=O)c1cc(C#N)cc(C)c1NC(=O)c1nc(Cn2nnc(C(F)(F)F)n2)oc1-c1ccccc1Cl [Compound 6]
chromatographic logP [1, 2]: 3.25

Cc1cc(C#N)cc(C(=O)NC(C)(C)C)c1NC(=O)c1nc(Cn2nnc(C(F)(F)F)n2)oc1-c1ccccc1Cl [Compound 7]
chromatographic logP [1, 2]: 3.95

CNC(=O)c1cc(Cl)cc(C)c1NC(=O)c1sc(Cn2nnc(C(F)(F)F)n2)nc1-c1ccccc1Cl [Compound 10]
pest or weed control at 100 g/ha (Phaedon cochleariae): 100%
chromatographic logP [1, 2]: 3.63

Cc1cc(Br)cc(C(=O)NC(C)C)c1NC(=O)c1sc(Cn2nnc(C(F)(F)F)n2)nc1-c1ccccc1Cl [Compound 11]
pest or weed control at 100 g/ha (Spodoptera frugiperda): 83%
pest or weed control at 100 g/ha (Phaedon cochleariae): 83%
chromatographic logP [1, 2]: 4.28

CNC(=O)c1cc(Br)cc(C)c1NC(=O)c1sc(Cn2nnc(C(F)(F)F)n2)nc1-c1ccccc1Cl [Compound 12]
pest or weed control at 100 g/ha (Phaedon cochleariae): 83%
chromatographic logP [1, 2]: 3.73

Cc1cc(Cl)cc(C(N)=O)c1NC(=O)c1sc(Cn2nnc(C(F)(F)F)n2)nc1-c1ccccc1Cl [Compound 13]
pest or weed control at 100 g/ha (Spodoptera frugiperda): 100%
pest or weed control at 100 g/ha (Phaedon cochleariae): 100%
chromatographic logP [1, 2]: 3.34

CNC(=O)c1cc(C#N)cc(C)c1NC(=O)c1sc(Cn2nnc(C(F)(F)F)n2)nc1-c1ccccc1Cl [Compound 14]
pest or weed control at 100 g/ha (Spodoptera frugiperda): 100%
chromatographic logP [1, 2]: 3.19

Cc1cc(C#N)cc(C(=O)NC(C)C)c1NC(=O)c1nc(Cn2nnc(C(F)(F)F)n2)oc1-c1ccccc1Cl [Compound 15]
chromatographic logP [1, 2]: 3.69

CNC(=O)c1cc(Cl)cc(C)c1NC(=O)c1nc(Cn2nnc(C(F)(F)F)n2)oc1-c1ccccc1Cl [Compound 16]
chromatographic logP [1, 2]: 3.65

Cc1cc(Cl)cc(C(=O)NC(C)(C)C)c1NC(=O)c1nc(Cn2nnc(C(F)(F)F)n2)oc1-c1ccccc1Cl [Compound 18]
chromatographic logP [1, 2]: 4.46

Cc1cc(Cl)cc(C(=O)NC(C)C)c1NC(=O)c1nc(Cn2nnc(C(F)(F)F)n2)oc1-c1ccccc1Cl [Compound 19]
chromatographic logP [1, 2]: 4.11

Cc1cc(Cl)cc(C(N)=O)c1NC(=O)c1nc(Cn2nnc(C(F)(F)F)n2)oc1-c1ccccc1Cl [Compound 20]
chromatographic logP [1, 2]: 3.45

CNC(=O)c1cc(Br)cc(C)c1NC(=O)c1nc(Cn2nnc(C(F)(F)F)n2)oc1-c1ccccc1Cl [Compound 21]
chromatographic logP [1, 2]: 3.72

Cc1cc(Br)cc(C(=O)NC(C)(C)C)c1NC(=O)c1nc(Cn2nnc(C(F)(F)F)n2)oc1-c1ccccc1Cl [Compound 22]
chromatographic logP [1, 2]: 4.52

Cc1cc(Br)cc(C(=O)NC(C)C)c1NC(=O)c1nc(Cn2nnc(C(F)(F)F)n2)oc1-c1ccccc1Cl [Compound 23]
chromatographic logP [1, 2]: 4.21

CNC(=O)c1cc(C#N)cc(C)c1NC(=O)c1nc(Cn2nnc(C(F)(F)F)n2)sc1-c1ccccc1Cl [Compound 24]
chromatographic logP [1, 2]: 3.46

Cc1cc(C#N)cc(C(=O)NC(C)C)c1NC(=O)c1sc(Cn2nnc(C(F)(F)F)n2)nc1-c1ccccc1Cl [Compound 25]
pest or weed control at 100 g/ha (Spodoptera frugiperda): 100%
pest or weed control at 100 g/ha (Phaedon cochleariae): 100%
chromatographic logP [1, 2]: 3.7

Cc1cc(Br)cc(C(=O)NC(C)(C)C)c1NC(=O)c1sc(Cn2nnc(C(F)(F)F)n2)nc1-c1ccccc1Cl [Compound 26]
pest or weed control at 100 g/ha (Spodoptera frugiperda): 100%
pest or weed control at 100 g/ha (Phaedon cochleariae): 100%
chromatographic logP [1, 2]: 4.69

Cc1cc(Cl)cc(C(=O)NC(C)(C)C)c1NC(=O)c1sc(Cn2nnc(C(F)(F)F)n2)nc1-c1ccccc1Cl [Compound 27]
pest or weed control at 100 g/ha (Spodoptera frugiperda): 100%
pest or weed control at 100 g/ha (Phaedon cochleariae): 100%
chromatographic logP [1, 2]: 4.59

Cc1cc(C#N)cc(C(=O)NC(C)(C)C)c1NC(=O)c1nc(Cn2nnc(C(F)(F)F)n2)sc1-c1ccccc1Cl [Compound 28]
chromatographic logP [1, 2]: 4.29

Cc1cc(Br)cc(C(=O)NC(C)(C)C)c1NC(=O)c1nc(Cn2nnc(C(F)(F)F)n2)sc1-c1ccccc1Cl [Compound 29]
chromatographic logP [1, 2]: 4.83

Cc1cc(C#N)cc(C(=O)NC(C)(C)C)c1NC(=O)c1sc(Cn2nnc(C(F)(F)F)n2)nc1-c1ccccc1Cl [Compound 30]
pest or weed control at 100 g/ha (Spodoptera frugiperda): 100%
pest or weed control at 100 g/ha (Phaedon cochleariae): 100%
chromatographic logP [1, 2]: 4.07

CNC(=O)c1cc(C#N)cc(C)c1NC(=O)c1cn(Cc2ccc(C(F)(F)F)nc2)nc1-c1ccccc1Cl [Compound 31]
pest or weed control at 100 g/ha (Spodoptera frugiperda): 100%
log P ([1]; HPLC, table of compounds): 2.83
chromatographic logP [1, 2]: 2.78

Cc1cc(Cl)cc(C(=O)NC(C)C)c1NC(=O)c1sc(Cn2nnc(C(F)(F)F)n2)nc1-c1ccccc1Cl [Compound 32]
pest or weed control at 100 g/ha (Spodoptera frugiperda): 100%
pest or weed control at 100 g/ha (Phaedon cochleariae): 100%
chromatographic logP [1, 2]: 4.15

CNC(=O)c1cc(C#N)cc(C)c1NC(=O)c1cc(C(=O)Cn2nnc(C(F)(F)F)n2)cn1-c1ncccc1Cl [Compound 33]
chromatographic logP [1, 2]: 2.75

O=C(O)c1cnc(Cn2nnc(C(F)(F)F)n2)nc1-c1ccccc1Cl [Example No. (IV-1), 4-(2-chlorophenyl)-2-[5-(trifluoromethyl)-2H-tetrazol-2-yl]methylpyrimidine-5-carboxylic acid]
chromatographic logP ([1]; Preparation Examples): 2.5

CCOC(=O)c1cnc(CBr)nc1-c1ccccc1Cl [Example No. (IX), ethyl 2-(bromomethyl)-4-(2-chlorophenyl)pyrimidine-5-carboxylate]
chromatographic logP ([1]; Preparation Examples): 3.32

CCOC(=O)c1cnc(Cn2nnc(C(F)(F)F)n2)nc1-c1ccccc1Cl [Example No. (X), ethyl 4-(2-chlorophenyl)-2-[5-(trifluoromethyl)-2H-tetrazol-2-yl]methylpyrimidine-5-carboxylate]
chromatographic logP ([1]; Preparation Examples): 3.56

O=C(Cn1nnc(C(F)(F)F)n1)c1cc(C(=O)O)n(-c2ncccc2Cl)c1 [Example No. IV-3, 1-(3-chloropyridin-2-yl)-4-{[5-(trifluoromethyl)-2H-tetrazol-2-yl]acetyl}-1H-pyrrole-2-carboxylic acid]
chromatographic logP ([1]; Preparation Examples): 2.24

O=C(O)c1sc(Cn2nnc(C(F)(F)F)n2)nc1-c1ccccc1Cl [Example No. X (IV-2), 4-(2-chlorophenyl)-2-{[5-(trifluoromethyl)-2H-tetrazol-2-yl]methyl}-1,3-thiazole-5-carboxylic acid]
chromatographic logP ([1]; Preparation Examples): 2.63

COC(=O)c1sc(CBr)nc1-c1ccccc1Cl [Example No. XII, methyl 2-(bromomethyl)-4-(2-chlorophenyl)-1,3-thiazole-5-carboxylate]
chromatographic logP ([1]; Preparation Examples): 4.12

COC(=O)c1sc(Cn2nnc(C(F)(F)F)n2)nc1-c1ccccc1Cl [Example No. XIII, methyl 4-(2-chlorophenyl)-2-{[5-(trifluoromethyl)-2H-tetrazol-2-yl]methyl}-1,3-thiazole-5-carboxylate]
chromatographic logP ([1]; Preparation Examples): 3.6

COC(=O)c1cc(C(C)=O)cn1-c1ncccc1Cl [Example No. XV, methyl 4-acetyl-1-(3-chloropyridin-2-yl)-1H-pyrrole-2-carboxylate]
chromatographic logP ([1]; Preparation Examples): 1.74

COC(=O)c1cc(C(=O)CBr)cn1-c1ncccc1Cl [Example No. XVI, methyl 4-(bromoacetyl)-1-(3-chloropyridin-2-yl)-1H-pyrrole-2-carboxylate]
chromatographic logP ([1]; Preparation Examples): 2.28

COC(=O)c1cc(C(=O)Cn2nnc(C(F)(F)F)n2)cn1-c1ncccc1Cl [Example No. XVII, methyl 1-(3-chloropyridin-2-yl)-4-{[5-(trifluoromethyl)-2H-tetrazol-2-yl]acetyl}-1H-pyrrole-2-carboxylate]
chromatographic logP ([1]; Preparation Examples): 2.97

CNC(=O)c1cc(Cl)cc(C)c1NC(=O)c1cnc(Cn2nnc(C(F)(F)F)n2)nc1-c1ccccc1Cl [N-[4-chloro-2-methyl-6-(methylcarbamoyl)phenyl]-4-(2-chlorophenyl)-2-{[5-(trifluoromethyl)-2H-tetrazol-2-yl]methyl}pyrimidine-5-carboxamide]
chromatographic logP ([1]; Preparation Examples): 3.13
